Assay [1] concerns the target T1, Progesterone receptor (Homo sapiens, UniProt P06401).
T1 sequence (P06401 whole entry): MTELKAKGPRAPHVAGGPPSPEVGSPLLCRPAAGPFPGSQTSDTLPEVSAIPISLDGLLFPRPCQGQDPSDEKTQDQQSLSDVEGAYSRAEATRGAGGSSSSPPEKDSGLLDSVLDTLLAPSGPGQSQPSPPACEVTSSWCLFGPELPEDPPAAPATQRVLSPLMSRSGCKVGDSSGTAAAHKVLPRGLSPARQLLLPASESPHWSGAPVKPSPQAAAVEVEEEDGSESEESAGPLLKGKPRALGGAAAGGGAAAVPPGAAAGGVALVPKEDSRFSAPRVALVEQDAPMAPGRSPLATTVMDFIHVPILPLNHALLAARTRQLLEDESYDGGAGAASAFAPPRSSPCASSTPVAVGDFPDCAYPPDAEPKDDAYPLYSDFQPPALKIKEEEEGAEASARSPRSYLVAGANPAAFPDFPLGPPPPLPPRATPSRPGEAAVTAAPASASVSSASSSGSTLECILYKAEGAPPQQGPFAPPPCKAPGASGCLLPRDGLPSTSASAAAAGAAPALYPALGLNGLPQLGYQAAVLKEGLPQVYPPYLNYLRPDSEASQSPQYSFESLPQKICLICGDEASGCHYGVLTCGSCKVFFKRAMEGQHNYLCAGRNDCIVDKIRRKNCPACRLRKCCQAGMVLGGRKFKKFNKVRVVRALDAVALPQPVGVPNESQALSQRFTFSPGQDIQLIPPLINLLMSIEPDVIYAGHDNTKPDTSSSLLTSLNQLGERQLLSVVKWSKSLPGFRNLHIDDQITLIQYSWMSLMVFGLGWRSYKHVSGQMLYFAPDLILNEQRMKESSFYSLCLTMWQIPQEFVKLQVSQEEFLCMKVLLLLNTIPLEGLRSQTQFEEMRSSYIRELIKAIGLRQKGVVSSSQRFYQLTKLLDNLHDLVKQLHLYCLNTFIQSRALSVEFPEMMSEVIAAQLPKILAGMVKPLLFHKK
Description: Binding affinity to human PR.

For assay [2], the target named is T2, Glucocorticoid receptor (Homo sapiens, UniProt P04150).
T2 sequence (P04150 whole entry): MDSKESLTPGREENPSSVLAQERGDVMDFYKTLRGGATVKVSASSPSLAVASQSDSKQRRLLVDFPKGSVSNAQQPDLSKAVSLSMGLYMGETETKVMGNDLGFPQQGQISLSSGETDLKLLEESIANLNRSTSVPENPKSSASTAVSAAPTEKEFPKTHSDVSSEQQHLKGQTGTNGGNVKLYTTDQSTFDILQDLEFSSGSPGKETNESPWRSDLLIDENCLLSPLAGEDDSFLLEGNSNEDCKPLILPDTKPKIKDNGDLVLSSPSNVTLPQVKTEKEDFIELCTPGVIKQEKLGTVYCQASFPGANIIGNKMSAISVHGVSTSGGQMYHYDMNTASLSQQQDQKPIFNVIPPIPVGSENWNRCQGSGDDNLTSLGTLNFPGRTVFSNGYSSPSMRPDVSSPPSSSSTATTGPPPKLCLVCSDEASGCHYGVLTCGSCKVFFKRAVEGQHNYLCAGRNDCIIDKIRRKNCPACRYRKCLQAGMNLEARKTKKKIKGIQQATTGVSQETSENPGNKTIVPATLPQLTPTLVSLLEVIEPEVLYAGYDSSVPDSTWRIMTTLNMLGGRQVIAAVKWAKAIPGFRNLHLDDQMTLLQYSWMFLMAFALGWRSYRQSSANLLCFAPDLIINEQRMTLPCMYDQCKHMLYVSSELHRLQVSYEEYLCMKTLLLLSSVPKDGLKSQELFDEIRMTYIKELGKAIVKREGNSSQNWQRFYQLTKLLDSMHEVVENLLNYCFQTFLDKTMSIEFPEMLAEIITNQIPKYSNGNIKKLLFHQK
Put plainly: Binding affinity to human GR.

Assay [3] has as its system HFF. Description: Inhibition of IL1-induced IL6 production in human foreskin fibroblast. It counts as functional, cell-based.
The target of assay [4] is T2, Glucocorticoid receptor. Put plainly: Inhibition of Dexamethasone induced GR transactivation of MMTV luciferase in HeLa cells. In kind it is functional, cell-based.
Assay [5] deals with T3, Mineralocorticoid receptor (Homo sapiens, UniProt P08235).
T3 sequence (P08235 whole entry): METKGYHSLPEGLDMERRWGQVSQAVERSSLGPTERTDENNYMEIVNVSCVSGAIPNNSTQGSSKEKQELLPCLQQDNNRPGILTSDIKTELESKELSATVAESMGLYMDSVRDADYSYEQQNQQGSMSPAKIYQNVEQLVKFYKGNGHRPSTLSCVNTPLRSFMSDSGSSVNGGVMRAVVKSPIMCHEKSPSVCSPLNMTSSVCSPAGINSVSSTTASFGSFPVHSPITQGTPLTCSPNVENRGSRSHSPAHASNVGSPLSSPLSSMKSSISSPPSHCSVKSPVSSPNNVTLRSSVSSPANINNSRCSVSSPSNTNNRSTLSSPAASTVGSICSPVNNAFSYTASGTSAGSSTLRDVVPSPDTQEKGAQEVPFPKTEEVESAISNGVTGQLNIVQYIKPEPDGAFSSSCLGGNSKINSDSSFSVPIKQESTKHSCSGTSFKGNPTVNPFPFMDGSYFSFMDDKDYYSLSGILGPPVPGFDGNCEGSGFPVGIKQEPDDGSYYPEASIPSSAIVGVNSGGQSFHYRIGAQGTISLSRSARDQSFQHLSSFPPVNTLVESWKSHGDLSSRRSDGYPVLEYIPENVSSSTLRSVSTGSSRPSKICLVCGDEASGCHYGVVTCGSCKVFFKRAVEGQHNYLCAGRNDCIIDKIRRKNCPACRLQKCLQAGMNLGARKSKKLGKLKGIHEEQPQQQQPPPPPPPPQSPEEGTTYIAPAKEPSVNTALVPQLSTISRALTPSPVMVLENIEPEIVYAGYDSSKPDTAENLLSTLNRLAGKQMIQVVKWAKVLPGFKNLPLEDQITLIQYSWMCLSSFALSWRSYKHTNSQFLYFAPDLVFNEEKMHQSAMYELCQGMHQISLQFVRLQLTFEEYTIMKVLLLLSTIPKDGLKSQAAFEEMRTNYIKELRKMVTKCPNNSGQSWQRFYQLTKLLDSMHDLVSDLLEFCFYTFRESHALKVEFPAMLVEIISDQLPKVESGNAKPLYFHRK
Description: Binding affinity to human MR.

The target of assay [6] is Estrogen receptor (Homo sapiens, UniProt Q92731+P03372). Description: Binding affinity to human ER. It counts as protein assay.

IC50 and Activity data for 33 molecules are collected here from ChEMBL document CHEMBL1139667, “Discovery and SAR study of novel dihydroquinoline containing glucocorticoid receptor ligands” (Bioorg Med Chem Lett, 2006).

The structures appear in SMILES notation. Active and inactive are the calls of the source. No cut-off for these calls is given here.

Usually IC50 stands for the point on the concentration scale where inhibition reaches its midpoint. Higher therefore signals lower potency.

For the molecule `C=CCSCC1=CC(C)(C)Nc2ccc(-c3cccc(OC)c3OC)cc21`, the IC50 in assay [1] and in assay [2] was > 2000 nM each time.
With `C=CCSCC1=CC(C)(C)Nc2ccc(-c3ccccc3C(F)(F)F)cc21`, the IC50 in assay [1] and in assay [2] was > 2000 nM each time.
`CNC(=O)CSCC1=CC(C)(C)Nc2ccc(-c3ccccc3OC)cc21`: the 50% inhibitory concentration (IC50) in assay [1] and in assay [2] was > 2000 nM each time.
As for `C=CCSCC1=CC(C)(C)Nc2ccc(-c3ccc(OC)cc3)cc21`, the 50% inhibitory concentration (IC50) in assay [1] and in assay [2] was > 2000 nM throughout.
For `COc1ccccc1-c1ccc2c(c1)C(CSCc1ccccc1)=CC(C)(C)N2`, the IC50 in assay [1] was 660 nM; in assay [2], > 2000 nM.
On the same counts, the results for `COc1ccccc1-c1ccc2c(c1)C(CSc1ccccc1)=CC(C)(C)N2` are > 2000 nM and 804 nM.
On the same counts, the results for `C=CCSCC1=CC(C)(C)Nc2ccc(-c3ccccc3[N+](=O)[O-])cc21` are > 2000 nM and > 2000 nM.
For `C=CCSCC1=CC(C)(C)Nc2ccc(-c3cc(F)ccc3OC)cc21` the same measures were 1400 nM and 190 nM.
On to `C=CCOCC1=CC(C)(C)Nc2ccc(-c3ccccc3OC)cc21`, for which the half-inhibitory concentration (IC50) in assay [1] and in assay [2] was > 2000 nM throughout.
With `COc1ccccc1-c1ccc2c(c1)C(CSCCc1ccccc1)=CC(C)(C)N2`, the IC50 is > 2000 nM in assay [1] and 194 nM in assay [2].
For `C=CCSCC1=CC(C)(C)Nc2ccc(-c3ccccc3-c3ccccc3)cc21` the same measures were > 2000 nM and > 2000 nM.
On the same counts, the results for `CCC(C)CSCC1=CC(C)(C)Nc2ccc(-c3ccccc3OC)cc21` (centres undefined) are > 2000 nM and 303 nM.
On the same counts, the results for `C=CCSCC1=CC(C)(C)Nc2ccc(-c3cccc(OC)c3)cc21` are 460 nM and 1000 nM.
`COc1ccc(F)cc1-c1ccc2c(c1)C(CSCCc1ccccc1)=CC(C)(C)N2`: the outcome in assay [3] was inactive. In addition, the IC50 in assay [4] was 45 nM; in assay [5], > 2000 nM; in assay [6], > 2000 nM; in assay [1], > 2000 nM; in assay [2], 84 nM.
For `C=CCSCC1=CC(C)(C)Nc2ccc(-c3ccccc3)cc21`, the IC50 in assay [1] and in assay [2] was > 2000 nM each time.
As to `C=CCSCC1=CC(C)(C)Nc2ccc(-c3ccccc3OC)cc21`, the results for the IC50 in assay [1] and in assay [2] were 460 nM and 360 nM, respectively.
Consider `C=CCSCC1=CC(C)(C)Nc2ccc(-c3cccc(O)c3Cl)cc21`, for which the 50% inhibitory concentration (IC50) in assay [1] amounted to 960 nM; in assay [2] it was 129 nM.
Regarding `C=CCNCC1=CC(C)(C)Nc2ccc(-c3ccccc3OC)cc21`, the concentration for half-maximal inhibition (IC50) in assay [1] and in assay [2] was > 2000 nM throughout.
Regarding `C=CCSCC1=CC(C)(C)Nc2ccc(-c3ccccc3C)cc21`, the half-inhibitory concentration (IC50) in assay [1] and in assay [2] was > 2000 nM each time.
For `COc1ccccc1-c1ccc2c(c1)C(CSC(C)=O)=CC(C)(C)N2`, the results for the 50% inhibitory concentration (IC50) in assay [1] and in assay [2] were 620 nM and > 2000 nM, respectively.
`C=CCSCC1=CC(C)(C)Nc2ccc(-c3ccccc3F)cc21`: the IC50 was 360 nM in assay [1] and > 2000 nM in assay [2].
Consider `COc1ccccc1-c1ccc2c(c1)C(C)=CC(C)(C)N2`, for which the half-inhibitory concentration (IC50) in assay [1] and in assay [2] was > 2000 nM throughout.
`C=CCSCC1=CC(C)(C)Nc2ccc(-c3c(OC)cccc3OC)cc21`: the IC50 in assay [1] and in assay [2] was > 2000 nM throughout.
Regarding `COc1ccccc1-c1ccc2c(c1)C(CSCCC(C)C)=CC(C)(C)N2`, the concentration for half-maximal inhibition (IC50) in assay [1] is > 2000 nM; in assay [2] it was 703 nM.
For `C=CCSCC1=CC(C)(C)Nc2ccc(-c3cc(OC)ccc3OC)cc21` the same measures were > 2000 nM and > 2000 nM.
On the same counts, the results for `C=CCSCC1=CC(C)(C)Nc2ccc(-c3cccc(OCC)c3)cc21` are > 2000 nM and > 2000 nM.
For `COC(=O)CSCC1=CC(C)(C)Nc2ccc(-c3ccccc3OC)cc21` the same measures were > 2000 nM and > 2000 nM.
For `CCCSCC1=CC(C)(C)Nc2ccc(-c3ccccc3OC)cc21`, the concentration for half-maximal inhibition (IC50) in assay [1] stood at 1600 nM; in assay [2], 1020 nM.
On the same counts, the results for `C=CCSCC1=CC(C)(C)Nc2ccc(-c3ccccc3OCC)cc21` are > 2000 nM and > 2000 nM.
With `COc1ccccc1-c1ccc2c(c1)C(CSC1CCCC1)=CC(C)(C)N2`, the half-inhibitory concentration (IC50) was > 2000 nM in assay [1] and 548 nM in assay [2].
For `COc1ccccc1-c1ccc2c(c1)C(CSc1ccc(Cl)cc1)=CC(C)(C)N2` the same measures were > 2000 nM and 800 nM.
On the same counts, the results for `COc1ccccc1-c1ccc2c(c1)C(CSC1CCCCC1)=CC(C)(C)N2` are > 2000 nM and 371 nM.
Take `CC1(C)C=C(CSCCc2ccccc2)c2cc(-c3cccc(O)c3Cl)ccc2N1`: the result in assay [3] was inactive. Besides, the 50% inhibitory concentration (IC50) in assay [4] was 260 nM; in assay [5] it was > 2000 nM; in assay [6], > 2000 nM; in assay [1], 1400 nM; in assay [2] it was 220 nM.
